Tests used:
Type in all cases: in vivo
Barnyardgrass = assay: Pre-emergent herbicidal activity (Table A); conditions: Echinochloa crus-galli, pre-emergence, Bygr, 11.2 kg/ha, 10-14 days, read-out: herbicidal rating (% inhibition)
Summary of the method: (§1)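 Seeds or vegetative propagules were set on topsoil compacted to 0.95 to 1.27 cm below the pan rim, then covered with soil thoroughly mixed with a known amount of test compound in acetone or water carrier. Ratings follow a scale of percent inhibition per species.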

Cocklebur = assay: Pre-emergent herbicidal activity (Table A); conditions: Xanthium strumarium, pre-emergence, Cobu, 11.2 kg/ha, 10-14 days, read-out: herbicidal rating (% inhibition)
Summary of the method: as §1

Downy Brome = assay: Pre-emergent herbicidal activity (Table A); conditions: Bromus tectorum, pre-emergence, Dobr, 11.2 kg/ha, 10-14 days, read-out: herbicidal rating (% inhibition)
Summary of the method: as §1

Morningglory = assay: Pre-emergent herbicidal activity (Table A); conditions: Ipomoea, pre-emergence, Mogl, 11.2 kg/ha, 10-14 days, read-out: herbicidal rating (% inhibition)
Summary of the method: as §1

Velvetleaf = assay: Pre-emergent herbicidal activity (Table A); conditions: Abutilon theophrasti, pre-emergence, Vele, 11.2 kg/ha, 10-14 days, read-out: herbicidal rating (% inhibition)
Summary of the method: as §1

Yellow Nutsedge = assay: Pre-emergent herbicidal activity (Table A); conditions: Cyperus, pre-emergence, Yens, 11.2 kg/ha, 10-14 days, read-out: herbicidal rating (% inhibition)
Summary of the method: as §1

Bygr = assay: plant injury after spraying emerged plants (Table D); parameters: scale not given here
Description: (§2) Topsoil (silt loam) is sieved through a screen having 1.27 cm openings. […] This mixture is steam sterilized and then placed in aluminum pans 6.985 cm deep having ten holes in the bottom each 0.635 cm in diameter. The soil mixture is compacted to a depth of 1.27 cm. from the top of the pan. A predetermined number of seeds of each of several dicotyledonous and monocotyledonous annual plant species and/or vegetative propagules for the perennial plant species are placed on the soil and pressed into the soil surface. The seeds and/or vegetative propagules are covered with 1.27 cm of a mixture of 50% topsoil and 50% of a mixture of Canadian sphagnum peat moss, vermiculite and a wetting agent. The pans are then placed on a capillary mat on a greenhouse bench and subirrigated as needed.
(§3) In the following Table D the legends used to identify the plant species are the same as those used in the preceding Table B.

Cobu = assay: as above; parameters: scale not given here
Description: as §2, §3

Corn = assay: as above; parameters: scale not given here
Description: as §2, §3

Grft = assay: as above; parameters: scale not given here
Description: as §2, §3

Grso = assay: as above; parameters: scale not given here
Description: as §2, §3

Mogl = assay: as above; parameters: scale not given here
Description: as §2, §3

Rice = assay: as above; parameters: scale not given here
Description: as §2, §3

Sobe = assay: as above; parameters: scale not given here
Description: as §2, §3

Whez = assay: as above; parameters: scale not given here
Description: as §2, §3

Dobr = assay: as above
Description: Topsoil (silt loam) is sieved through a screen having 1.27 cm openings. In some of the tests the soil was mixed with fertilizer (1225 g/cu. m of 12/5/9 containing isobutylidene diurea), while in other tests the fertilizer was omitted. This mixture is steam sterilized and then placed in aluminum pans 6.985 cm deep having ten holes in the bottom each 0.635 cm in diameter. The soil mixture is compacted to a depth of 1.27 cm. from the top of the pan. A predetermined number of seeds of each of several dicotyledonous and monocotyledonous annual plant species and/or vegetative propagules for the perennial plant species are placed on the soil and pressed into the soil surface. The seeds and/or vegetative propagules are covered with 1.27 cm of a mixture of 50% topsoil and 50% of a mixture of Canadian sphagnum peat moss, vermiculite and a wetting agent. The pans are then placed on a capillary mat on a greenhouse bench and subirrigated as needed. After the plants reach the desired stage (9 to 14 days, 1 to 3 true leaf stage), each pan (except the control pans) is removed to a spraying chamber and sprayed by means of an atomizer, operating at a spray pressure of 170.3 kPa ([…]) at the application rates noted in Table D. In the spray solution is an amount of an emulsifying agent mixture (35% butylamine salt of dodecylbenzenesulfonic acid and 65% tall oil condensed with ethylene oxide in the ratio of 11 mols of ethylene oxide/mol of tall oil) to give a spray solution or suspension. The spray solution or suspension contains a sufficient amount of the candidate chemical in order to give application rates of the active ingredient corresponding to those shown in Table D below while applying a total amount of solution or suspension equivalent to 1870 L/Ha (200 gallons/acre). The pans are returned to the greenhouse and watered as before and the injury to the plants as compared to the control pans is observed at approximately 10-14 days (usually 11 days).
as §3

`COC(=O)c1c(OC)nc(C(F)(F)F)c(-c2nnc(C)o2)c1CC(C)C` [Compound 103, 3-pyridinecarboxylic acid, 2-methoxy-5-(5-methy1-1,3,4-oxadiazo1-2-yl)-4-(2-methylpropyl)-6-(trifluoromethyl)-, methyl ester] was tested. Which inhibition at 11200 g/ha (Barnyardgrass) did it give?
Its inhibition at 11200 g/ha is 75 to 100%.

What about the inhibition at 11200 g/ha (Cocklebur) of the same compound?
The inhibition at 11200 g/ha was 0 to 24%.

What about the inhibition at 11200 g/ha (Downy Brome) of the same compound?
Its inhibition at 11200 g/ha is 50 to 74%.

And the inhibition at 11200 g/ha (Morningglory)?
Its inhibition at 11200 g/ha is 75 to 100%.

What about the inhibition at 11200 g/ha (Velvetleaf) of the same compound?
The inhibition at 11200 g/ha was 75 to 100%.

What about the inhibition at 11200 g/ha (Yellow Nutsedge) of the same compound?
The inhibition at 11200 g/ha was 0 to 24%.

And the “plant injury rating, Bygr” value (Bygr; 0.0701 kg/ha)?
Its value is 0.

What about the “plant injury rating, Bygr” value (Bygr; 0.2803 kg/ha) of the same compound?
Its value is 0.

And the “plant injury rating, Bygr” value (Bygr; 1.1219 kg/ha)?
The value was 0.

And the “plant injury rating, Bygr” value (Bygr; 5.6050 kg/ha)?
The value was 0.

And the “plant injury rating, Cobu” value (Cobu; 0.0701 kg/ha)?
The value was 0.

What about the “plant injury rating, Cobu” value (Cobu; 0.2803 kg/ha) of the same compound?
The value was 0.

And the “plant injury rating, Cobu” value (Cobu; 1.1219 kg/ha)?
The value was 0.

And the “plant injury rating, Cobu” value (Cobu; 5.6050 kg/ha)?
Its value is 0.

And the “plant injury rating, Corn” value (Corn; 0.0701 kg/ha)?
The value was 0.

And the “plant injury rating, Corn” value (Corn; 0.2803 kg/ha)?
Its value is 0.

What about the “plant injury rating, Corn” value (Corn; 1.1219 kg/ha) of the same compound?
Its value is 3.

What about the “plant injury rating, Corn” value (Corn; 5.6050 kg/ha) of the same compound?
The value was 3.

And the “plant injury rating, Grft” value (Grft; 0.0701 kg/ha)?
Its value is 0.

What about the “plant injury rating, Grft” value (Grft; 0.2803 kg/ha) of the same compound?
Its value is 0.

And the “plant injury rating, Grft” value (Grft; 1.1219 kg/ha)?
Its value is 0.

What about the “plant injury rating, Grft” value (Grft; 5.6050 kg/ha) of the same compound?
Its value is 0.

What about the “plant injury rating, Grso” value (Grso; 0.0701 kg/ha) of the same compound?
The value was 0.

What about the “plant injury rating, Grso” value (Grso; 0.2803 kg/ha) of the same compound?
The value was 0.

And the “plant injury rating, Grso” value (Grso; 1.1219 kg/ha)?
The value was 0.

And the “plant injury rating, Grso” value (Grso; 5.6050 kg/ha)?
The value was 2.

What about the “plant injury rating, Mogl” value (Mogl; 0.0701 kg/ha) of the same compound?
The value was 0.

What about the “plant injury rating, Mogl” value (Mogl; 0.2803 kg/ha) of the same compound?
Its value is 1.

What about the “plant injury rating, Mogl” value (Mogl; 1.1219 kg/ha) of the same compound?
Its value is 1.

What about the “plant injury rating, Mogl” value (Mogl; 5.6050 kg/ha) of the same compound?
Its value is 2.

And the “plant injury rating, Rice” value (Rice; 0.0701 kg/ha)?
Its value is 0.

And the “plant injury rating, Rice” value (Rice; 0.2803 kg/ha)?
The value was 0.

And the “plant injury rating, Rice” value (Rice; 1.1219 kg/ha)?
The value was 0.

And the “plant injury rating, Rice” value (Rice; 5.6050 kg/ha)?
Its value is 0.

What about the “plant injury rating, Sobe” value (Sobe; 0.0701 kg/ha) of the same compound?
Its value is 0.

And the “plant injury rating, Sobe” value (Sobe; 0.2803 kg/ha)?
Its value is 0.

And the “plant injury rating, Sobe” value (Sobe; 1.1219 kg/ha)?
The value was 0.

What about the “plant injury rating, Sobe” value (Sobe; 5.6050 kg/ha) of the same compound?
The value was 2.

What about the “plant injury rating, Whez” value (Whez; 0.0701 kg/ha) of the same compound?
Its value is 0.

What about the “plant injury rating, Whez” value (Whez; 0.2803 kg/ha) of the same compound?
Its value is 0.

And the “plant injury rating, Whez” value (Whez; 1.1219 kg/ha)?
The value was 0.

And the “plant injury rating, Whez” value (Whez; 5.6050 kg/ha)?
Its value is 0.

What about the “plant injury rating, Dobr” value (Dobr; 0.0701 kg/ha) of the same compound?
The value was 0.

And the “plant injury rating, Dobr” value (Dobr; 0.2803 kg/ha)?
Its value is 0.

And the “plant injury rating, Dobr” value (Dobr; 1.1219 kg/ha)?
The value was 0.

And the “plant injury rating, Dobr” value (Dobr; 5.6050 kg/ha)?
The value was 0.

— patent US5391540A, “Substituted pyridine compounds” (Rohm and Haas Company, priority 1993, dated 1995)
